The subject of this experiment is Lin^−/CD34^+/CD38^−/CD123^+ cancer stem cells in KG1a cells. Put plainly: Immunophenotypic quantification of the leukaemic stem cell compartment in KG1a cells. To be noted: KG1a cells. It is filed as cell-based, human. As to the method:
The respective abilities of NUC-1031 and gemcitabine to target CSCs were investigated in the AML cell line KG1a.
KG1a cells were cultured for 72 hours in the presence of a wide range of concentrations of each nucleoside analogue and their respective ProTides. Cells were then harvested and labelled with a cocktail of anti-lineage antibodies (PE-cy7), anti-CD34 (FITC), anti-CD38 (PE) and anti-CD123 (PERCP cy5). The sub-population expressing a leukaemic stem cell (LSC) phenotype were subsequently identified and were expressed as a percentage of all viable cells left in the culture. The percentages of stem cells remaining were then plotted on a dose-response graph and the proportion of cancer stem cells was compared across the various concentrations of ProTides and their respective parent compounds, in order to determine if they preferentially target cancer stem cells.
The data obtained in these experiments were evaluated using one way ANOVA. All data was confirmed as Gaussian or a Gaussian approximation using the omnibus K2 test. LD50 values were calculated from the non-linear regression and line of best-fit analysis of the sigmoidal dose-response curves. All statistical analyses were performed using Graphpad Prism 6.0 software (Graphpad Software Inc., San Diego, Calif.).

Entries after “also recorded” stand apart in the source; their conditions may differ.

Turning to `C[C@H](NP(=O)(OC[C@H]1O[C@@H](n2ccc(N)nc2=O)C(F)(F)[C@@H]1O)Oc1ccccc1)C(=O)OCc1ccccc1` (stereo partly drawn) [NUC-1031, 2′-deoxy-2′,2′-difluoro-D-cytidine-5′-O-[phenyl (benzoxy-L-alaninyl)] phosphate], the “selectivity against cancer stem cells compared to the parent compound” value is recorded as “preferential targeting of CSCs; also recorded: statistically significantly greater”.

(Values after patent US11400107B2, “Cancer treatments” (NuCana plc, priority 2016, dated 2022).)
